According to patent publication US11396517B1, “Exo-aza spiro inhibitors of menin-MLL interaction” (Janssen Pharmaceutica NV, priority 2017, dated 2022):
Like-named read-outs stand apart in the source and are kept apart here.

Biological target: T1, menin (Homo sapiens, UniProt O00255, T541A)
T1 construct: Menin (a.a. 1-610-6×his tag)
T1 sequence (O00255 with tags, fused parts or gaps T541A): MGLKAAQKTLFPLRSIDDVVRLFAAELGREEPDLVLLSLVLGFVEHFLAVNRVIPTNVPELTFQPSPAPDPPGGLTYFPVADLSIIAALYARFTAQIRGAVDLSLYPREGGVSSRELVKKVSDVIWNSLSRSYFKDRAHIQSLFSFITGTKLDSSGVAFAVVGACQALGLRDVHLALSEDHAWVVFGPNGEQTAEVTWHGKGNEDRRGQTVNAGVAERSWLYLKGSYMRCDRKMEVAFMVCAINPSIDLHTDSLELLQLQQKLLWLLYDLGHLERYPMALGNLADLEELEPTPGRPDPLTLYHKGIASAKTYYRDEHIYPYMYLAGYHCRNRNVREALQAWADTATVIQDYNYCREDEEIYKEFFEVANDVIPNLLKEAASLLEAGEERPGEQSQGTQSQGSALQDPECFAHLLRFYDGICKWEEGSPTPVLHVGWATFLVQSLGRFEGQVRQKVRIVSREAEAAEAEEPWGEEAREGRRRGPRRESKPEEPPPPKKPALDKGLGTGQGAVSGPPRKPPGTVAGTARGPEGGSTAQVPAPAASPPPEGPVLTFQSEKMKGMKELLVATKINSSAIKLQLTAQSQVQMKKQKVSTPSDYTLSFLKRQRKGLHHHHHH
Experiment: Menin/MLL homogenous time-resolved fluorescence (HTRF) assay
Assay type: binding
Experimental: 2) Menin/MLL Homogenous Time-Resolved Fluorescence (HTRF) Assay
To an untreated, white 384-well microtiter plate was added 40 nL 200× test compound in DMSO and 4 μL 2× terbium chelate-labeled menin (vide infra for preparation) in assay buffer (40 mM Tris HCl, pH 7.5, 50 mM NaCl, 1 mM DTT and 0.05% Pluronic F-127). After incubation of test compound and terbium chelate-labeled menin for 5 min at ambient temperature, 4 μL 2× FITC-MBM1 peptide (FITC-β-alanine-[…]-NH2 (SEQ ID NO: 23)) in assay buffer was added, the microtiter plate centrifuged at 1000 rpm for 1 min and the assay mixtures incubated for 15 min at ambient temperature. The relative amount of menin.FITC-MBM1 complex present in an assay mixture is determined by measuring the homogenous time-resolved fluorescence (HTRF) of the terbium/FITC donor/acceptor fluorphore pair using a BMG Pherastar plate reader (ex. 337 nm/terbium em. 490 nm/FITC em. 520 nm) at ambient temperature. The degree of fluorescence resonance energy transfer (the HTRF value) is expressed as the ratio of the fluorescence emission intensities of the FITC and terbium fluorophores (Fern 520 nm/Fem 490 nm). The final concentrations of reagents in the binding assay are […] terbium chelate-labeled menin (location 2), 75 nM FITC-MBM1 peptide and 0.5% DMSO in assay buffer. Dose-response titrations of test compounds are conducted using an 11 point, three-fold serial dilution scheme, starting typically at 25 μM (location 1) or starting typically at 10 μM (location 2).
Compound potencies were determined by first calculating % inhibition at each compound concentration according to equation 1: % inhibition=((HC−LC)−(HTRF^compound−LC))/(HC−LC))*100 (Eqn 1)
Where LC and HC are the HTRF values of the assay in the presence or absence of a saturating concentration of a compound that competes with FITC-MBM1 for binding to menin, and HTRF^compound is the measured HTRF value in the presence of the test compound. FTC and LC HTRF values represent an average of at least 16 replicates per plate.
Where Bottom and Top are the lower and upper asymptotes of the dose-response curve, respectively, IC50 is the concentration of compound that yields 50% inhibition of signal and h is the Hill coefficient.
Preparation of Terbium cryptate labeling of Menin: Menin (a.a. 1-610-6×his tag (“6×his” disclosed as SEQ ID NO: 3)) was labeled with terbium cryptate as follows. 2 mg of Menin was buffer exchanged into 1× phosphate buffered saline. 16 uM Menin was incubated with 4-fold molar excess NHS-terbium cryptate (Cisbio Bioassays, Bedford, Mass.) for 2 hours at room temperature. The labeled protein was purified away from free label by running the reaction over a Superdex 200 Increase 10/300 GL column at 0.75 ml/min. Peak fractions were collected, aliquoted and frozen at −80° C.

[1] = location 2, read-out: (2) location 2 Menin HTRF assay (IC50 (nM))
[2] = location 1, read-out: (2) location 1 Menin HTRF assay (IC50 (nM))

Row | Compound | IC50 [1] [nM] | IC50 [2] [nM]
1 | CC(=O)Nc1ccc(NC2CC3(CCN(c4ncnc5sc(CC(F)(F)F)cc45)C3)C2)cc1 (single isomer, unassigned) [Compound 332] | 330 | –
2 | CN1CCN(C(=O)c2ccc(NC3CC4(CCN(c5ncnc6sc(CC(F)(F)F)cc56)C4)C3)cc2)CC1 (single isomer, unassigned) [Compound 337] | 2300 | –
3 | CN1CCN(C(=O)c2ccc(NC3CC4(CCN(c5ncnc6sc(CC(F)(F)F)cc56)C4)C3)cc2)CC1 (single isomer, unassigned) [Compound 338] | 89.5 | –
4 | Nc1nc(N2CCC3(CC(Nc4ccc5[nH]c(=O)[nH]c5c4)C3)C2)c2cc(CC(F)(F)F)sc2n1 (single isomer, unassigned) [Compound 383] | 70.8 | –
5 | N#CCc1ccc(NC2CCC3(C2)CN(c2nc(N)nc4sc(CC(F)(F)F)cc24)C3)cc1 (single isomer, unassigned) [Compound 388] | 217 | –
6 | N#CCc1ccc(NC2CCC3(C2)CN(c2nc(N)nc4sc(CC(F)(F)F)cc24)C3)cc1 (single isomer, unassigned) [Compound 389] | 96 | –
7 | CNc1nc(N2CCC3(CC(Nc4ccc(CC#N)cc4)C3)C2)c2cc(CC(F)(F)F)sc2n1 (single isomer, unassigned) [Compound 391] | 163 | –
8 | CNc1nc(N2CCC3(CC(Nc4ccc(CC#N)cc4)C3)C2)c2cc(CC(F)(F)F)sc2n1 (single isomer, unassigned) [Compound 392] | 16.8 | –
9 | CNc1nc(N2CCC3(CC(Nc4ccc5[nH]c(=O)[nH]c5c4)C3)C2)c2cc(CC(F)(F)F)sc2n1 (single isomer, unassigned) [Compound 395] | 113 | –
10 | COC[C@@H]1CN(C(=O)c2ccc(NC3CC4(CCN(c5ncnc6sc(CC(F)(F)F)cc56)C4)C3)cc2)CCO1 (single isomer, unassigned) [Compound 409] | 1100 | –
11 | O=C(c1ccc(NC2CC3(CCN(c4ncnc5sc(CC(F)(F)F)cc45)C3)C2)cc1)N1CC2(COC2)C1 (single isomer, unassigned) [Compound 414] | 100 | –
12 | FC(F)(F)Cc1cc2c(N3CC4(CC[C@@H](NC5(c6ccccc6)CC5)C4)C3)ncnc2s1 (stereo in doubt) [Compound 112] | 313 | –
13 | FC(F)(F)Cc1cc2c(N3CC4(CC[C@H](NC5(c6ccccc6)CC5)C4)C3)ncnc2s1 (stereo in doubt) [Compound 113] | 164 | –
14 | COc1nc(N2CC3(CC[C@@H](NCc4cccc(-c5cc[nH]n5)c4)C3)C2)c2cc(CC(F)(F)F)sc2n1 (stereo in doubt) [Compound 115] | 160 | –
15 | N#CCc1ccc(N[C@@H]2CC[C@]3(CCN(c4ncnc5sc(CC(F)(F)F)cc45)C3)C2)cc1 (stereo in doubt) [Compound 146] | 23.7 | –
16 | N#CCc1cccc(C(=O)NC2CC3(CCN(c4ncnc5sc(CC(F)(F)F)cc45)C3)C2)c1 (stereo not drawn) [Compound 8] | 1010 | 1250
17 | CC(C)(C#N)c1cccc(C(=O)NC2CC3(CCN(c4ncnc5sc(CC(F)(F)F)cc45)C3)C2)c1 (stereo not drawn) [Compound 9] | 1220 | 3810
18 | N#CCc1cccc(C(=O)NC2CCC3(C2)CN(c2ncnc4sc(CC(F)(F)F)cc24)C3)c1 (stereo not drawn) [Compound 18] | 1620 | 3840
19 | CC(C)(C#N)c1cccc(C(=O)NC2CCC3(C2)CN(c2ncnc4sc(CC(F)(F)F)cc24)C3)c1 (stereo not drawn) [Compound 19] | 3560 | 3630
20 | N#CCc1ccc(C(=O)NC2CCC3(C2)CN(c2ncnc4sc(CC(F)(F)F)cc24)C3)cc1 (stereo not drawn) [Compound 20] | 2790 | 2020
21 | O=S(=O)(NC1CC2(CCN(c3ncnc4sc(CC(F)(F)F)cc34)C2)C1)c1ccccc1 (stereo not drawn) [Compound 24] | 419 | –
22 | O=C(NC1CCC2(C1)CN(c1ncnc3sc(CC(F)(F)F)cc13)C2)c1cccc(-c2cc[nH]n2)c1 (stereo not drawn) [Compound 30] | 3890 | –

Row | Compound | IC50 [1] [nM] | IC50 [2] [nM]
23 | O=C(NC1CC2(CCN(c3ncnc4sc(CC(F)(F)F)cc34)C2)C1)c1ccccc1 (stereo not drawn) [Compound 36] | 7520 | –
24 | O=S(=O)(NC1CCC2(CCN(c3ncnc4sc(CC(F)(F)F)cc34)C2)C1)c1ccccc1 (stereo not drawn) [Compound 39] | 1440 | –
25 | Cn1cc(NC2CCC3(C2)CN(c2ncnc4sc(CC(F)(F)F)cc24)C3)cn1 (stereo not drawn) [Compound 43] | 1750 | –
26 | O=C1CN(C(=O)c2ccc(NC3CC4(CCN(c5ncnc6sc(CC(F)(F)F)cc56)C4)C3)cc2)CCN1 (stereo not drawn) [Compound 104] | 16.6 | –
27 | N#CCc1cccc(NC2CCC3(C2)CN(c2ncnc4sc(CC(F)(F)F)cc24)C3)c1 (stereo not drawn) [Compound 114] | 157 | –
28 | COc1nc(N2CC3(CCC(NCc4ccc5[nH]c(=O)[nH]c5c4)C3)C2)c2cc(CC(F)(F)F)sc2n1 (stereo not drawn) [Compound 117] | 111 | –
29 | CNC(=O)c1ccc(NC2CCC3(C2)CN(c2nc(NC)nc4sc(CC(F)(F)F)cc24)C3)cc1 (stereo not drawn) [Compound 123] | 137 | –
30 | N#CCc1cccc(S(=O)(=O)NC2CCC3(CCN(c4ncnc5sc(CC(F)(F)F)cc45)C3)C2)c1 (stereo not drawn) [Compound 124] | 2530 | –
31 | N#CCc1ccc(S(=O)(=O)NC2CCC3(CCN(c4ncnc5sc(CC(F)(F)F)cc45)C3)C2)cc1 (stereo not drawn) [Compound 125] | 5940 | –
32 | N#CCc1ccc(C(=O)NC2CCC3(CCN(c4ncnc5sc(CC(F)(F)F)cc45)C3)C2)cc1 (stereo not drawn) [Compound 126] | > 10000 | –
33 | N#CCc1cccc(C(=O)NC2CCC3(CCN(c4ncnc5sc(CC(F)(F)F)cc45)C3)C2)c1 (stereo not drawn) [Compound 127] | > 10000 | –
34 | O=C(NC1CCC2(CCN(c3ncnc4sc(CC(F)(F)F)cc34)C2)C1)c1ccccc1 (stereo not drawn) [Compound 128] | > 10000 | –
35 | N#Cc1cccc(NC2CCC3(CCN(c4ncnc5sc(CC(F)(F)F)cc45)C3)C2)c1 (stereo not drawn) [Compound 132] | 180 | –
36 | CC(C)(C#N)c1ccc(NC2CC3(CCN(c4ncnc5sc(CC(F)(F)F)cc45)C3)C2)cc1 (stereo not drawn) [Compound 169] | 425 | –
37 | N#CCc1cccc(NC2CC3(CCN(c4ncnc5sc(CC(F)(F)F)cc45)C3)C2)c1 (stereo not drawn) [Compound 201] | 175 | –
38 | Cc1nc(N2CCC3(CC(Nc4ccccc4)C3)C2)c2cc(CC(F)(F)F)sc2n1 (stereo not drawn) [Compound 264] | 913 | –
39 | O=c1ccc(NC2CCC3(C2)CN(c2ncnc4sc(CC(F)(F)F)cc24)C3)c[nH]1 (stereo not drawn) [Compound 283] | 2160 | –
40 | FC(F)(F)Cc1cc2c(N3CC4(CCC(Nc5ccc6cc[nH]c6c5)C4)C3)ncnc2s1 (stereo not drawn) [Compound 284] | 423 | –
41 | CNc1nc(N2CC3(CCC(Nc4ccc(CC#N)cc4)C3)C2)c2cc(CC(F)(F)F)sc2n1 (stereo not drawn) [Compound 400] | 373 | –
42 | CNc1nc(N2CC3(CCC(Nc4ccc5oc(=O)[nH]c5c4)C3)C2)c2cc(CC(F)(F)F)sc2n1 (stereo not drawn) [Compound 401] | 331 | –
43 | CNc1nc(N2CC3(CCC(Nc4ccc5[nH]c(=O)[nH]c5c4)C3)C2)c2cc(CC(F)(F)F)sc2n1 (stereo not drawn) [Compound 402] | 906 | –
